Consider 5 compounds from US20040253206A1 (priority 1999, published 2004).

Broadly, the IC50 is the point on the concentration scale where inhibition reaches its midpoint.

Data set [1] can be described thus: Storage stability of trifluoroacetate product fraction solutions (analytical HPLC). Type of data set: physicochemical.
The conditions of data set [2]: Hande 1998; cited from earlier work.
Data set [3] relates to LCC6-MDR1 PgP transfected breast carcinoma cell line. Nature of the data set: cells. The settings on record: for Resistance ratio (IC50 resistant cell line/IC50 parental line) LCC6-MDR1: LCC6-MDR1 versus LCC6-WT, range over experiments. The text has this: (§1) HT-1080 and HT-1080/DR4 (MRP/LRP positive) fibrosarcoma cell lines (1,2) were obtained from Dr. Y. Rustum, Roswell Park Cancer Institute, Buffalo, N.Y. The A121 ovarian cell line (3) was provided by Dr. Kent Crickard, Buffalo General Hospital, Buffalo, N.Y. The MDA435/LCC6-WT and MDR^1 transfected cell lines (4) were provided by Dr. R. Clarke, Lombardi Cancer Center, Georgetown University School of Medicine. Cell lines were propagated as monolayers in RPMI-1640 containing 5% FCS, 5% NuSerum IV, 20 mM HEPES, 2 mM L-glutamine at 37° C. in a 5% CO2 humidified atmosphere.
(§2) Paclitaxel, which was used for comparison purposes and is not a compound of the present invention, was provided by Dr. I. Ojima, SUNY at Stonybrook. […] Paclitaxel was solubilized in 100% DMSO. […] For the second experiment (Experiment 2), less concentrated stock solutions (0.4 mM) of each compound were prepared in sterile H2O acidified with 10% 1 N HCl. […] All compounds were further diluted in RPMI-1640 containing 10 mM HEPES.
(§3) Assessment of cell growth inhibition was determined in 96 well microtiter plates according to the method of Skehan et al., “New Colorimetric Cytotoxicity Assay for Anticancer-Drug Screening, Articles 82(13):1107-1112 (1990). Briefly, cells were plated with 400-1800 cells/well in 96 well plates and incubated at 37° C. 15-18 hr prior to drug addition to allow for cell attachment. Each cell line was exposed to 12 concentrations of compound (a 6 log range), 5 replicate data points per compound concentration. […] Assays were terminated with 100 μl of ice-cold 50% TCA. After 1 hr at 4° C., plates were washed 5 times with tap water to remove TCA, low-molecular-weight metabolites and serum proteins. 50 μl of 0.4% sulforhodamine B (SRB) was added to each well. Following a five minute incubation at room temperature, plates were rinsed 5 times with 0.1% acetic acid and air dried. Bound dye was solubilized with 10 mM Tris Base (pH 10.5) for 5 min on a gyratory shaker. Optical density was measured at 570 nm.
(§4) Data were fit with the Sigmoid-Emax concentration-effect model (N. H. G. Holford and L. B. Scheiner, “Understanding the dose-effect relationship: Clinical applications of pharmacokinetic-pharmacodynamic models,” Clin. Pharmacokin. 6:429-453 (1981)) with nonlinear regression, weighted by the reciprocal of the square of the predicted response. The fitting software was developed at RPCI with Microsoft FORTRAN, and uses Marquardt algorithm (D. W. Marquardt, “An algorithm for least squares estimation of nonlinear parameters,” J. Soc. Ind. Appl. Math. 11:431-441) as adapted by Nash (J. C. Nash, Compact Numerical Method for Computers: Linear Algebra and Function Minimization, New York: John Wiley & Sons, 1979) for the nonlinear regression.

In data set [4] the test system is HT-1080-DR4 doxorubicin selected MDR (MRP/LRP phenotype) fibrosarcoma cell line. Nature of the data set: Tumor cell growth inhibition (SRB), HT-1080-DR4. It counts as cell-based, human. The note with it: for Resistance ratio (IC50 resistant cell line/IC50 parental line) HT1080/DR4: HT1080/DR4 versus HT-1080, range over experiments; for IC50: 72-96 h, read-out: IC50 (±S.E.) HT-1080-DR4.
From the text: as §1, §2, §3, §4

Data set [5] relates to LCC6-WT breast carcinoma cell line. Nature of the data set: Tumor cell growth inhibition (SRB), LCC6-WT. Type of data set: cell-based, human. The settings on record: read-out: IC50 (±S.E.) LCC6-WT.
From the text: as §1, §2, §3, §4

Data set [6] relates to HT-1080 fibrosarcoma cell line. Nature of the data set: Tumor cell growth inhibition (SRB), HT-1080. It counts as cell-based, human. The settings on record: 72-96 h, read-out: IC50 (±S.E.) HT-1080.
From the text: as §1, §2, §3, §4

For data set [7], the system named is A121 ovarian carcinoma cell line. Nature of the data set: Tumor cell growth inhibition (SRB), A121. Type of data set: cell-based, human. The note with it: 72-96 h, read-out: IC50 (±S.E.) A121.
From the text: as §1, §2, §3, §4

A short description of data set [8]: Chemical hydrolysis in wet acetonitrile. The settings on record: ca. 1 mg/mL in wet acetonitrile, 26 days at room temperature. Type of data set: physicochemical. The procedure: A sample of solid acetate (Compound 4) was dissolved (ca. 1 mg/mL) in wet acetonitrile (nonanhydrous due to exposure to humid air).
Setting [9] is: Experiment 1, TX-001/TX-002 from 4.0 mM stocks.
Setting [10] is: Experiment 2, TX-001/TX-002 from 0.4 mM stocks.
The mark [11] stands for this setting: 4.0 mM stock solutions that had been stored at 4° C. for 7 days.
[12] abbreviates: Experiment 1, TX-001/TX-002 from 4.0 mM stocks, 72-96 h.
Setting [13] is: Experiment 2, TX-001/TX-002 from 0.4 mM stocks, 72-96 h.

Where two headings read alike, the source gives them in different places.

As to “2′-Succinamidyl-PEG2-amine-paclitaxel trifluoroacetate [Compound 3]”, the “average purity of product fraction solutions after storage” value in data set [1] (after storage at 8° C. for 16 days) is 97.4%. The “average purity of product fraction solutions, initial” value in data set [1] (preparative HPLC fraction solutions, before storage) is given as 98.8%.
For the compound `COc1cc([C@@H]2c3cc4c(cc3[C@@H](O[C@@H]3O[C@@H]5CO[C@@H](C)O[C@H]5[C@H](O)[C@H]3O)[C@H]3COC(=O)[C@H]23)OCO4)cc(OC)c1O` [Etoposide], the solubility in water result in data set [2] is “nearly insoluble in water”.
For the compound `CC(=O)O[C@H]1C(=O)[C@@]2(C)[C@H]([C@H](OC(=O)c3ccccc3)[C@]3(O)C[C@H](OC(=O)[C@H](O)[C@@H](NC(=O)c4ccccc4)c4ccccc4)C(C)=C1C3(C)C)[C@]1(OC(C)=O)CO[C@@H]1C[C@@H]2O` [Paclitaxel, reference compound], the IC50 in data set [3] (Homo sapiens, LCC6MDR, read-out: IC50 (±S.E.) LCC6-MDR, Experiment 1, TX-001/TX-002 from 4.0 mM stocks, 72-96 h) turned out to be 434 ± 28 nM; in data set [3] (Homo sapiens, LCC6MDR, read-out: IC50 (±S.E.) LCC6-MDR, Experiment 2, TX-001/TX-002 from 0.4 mM stocks, 72-96 h), 391 ± 52 nM; in data set [4] (Homo sapiens, Experiment 1, TX-001/TX-002 from 4.0 mM stocks), 4.9 ± 0.4 nM; in data set [4] (Homo sapiens, Experiment 2, TX-001/TX-002 from 0.4 mM stocks), 7.7 ± 0.1 nM; in data set [5] (Homo sapiens, Breast carcinoma cell, Experiment 1, TX-001/TX-002 from 4.0 mM stocks, 72-96 h), 4.7 ± 0.5 nM; in data set [5] (Homo sapiens, Breast carcinoma cell, Experiment 2, TX-001/TX-002 from 0.4 mM stocks, 72-96 h), 6 ± 2 nM. Besides, the IC50 in data set [6] (Homo sapiens, HT-1080, Experiment 1, TX-001/TX-002 from 4.0 mM stocks) is 4.5 ± 0.2 nM; in data set [6] (Homo sapiens, HT-1080, Experiment 2, TX-001/TX-002 from 0.4 mM stocks), 5.7 ± 0.3 nM; in data set [7] (Homo sapiens, A121, Experiment 1, TX-001/TX-002 from 4.0 mM stocks), 11 ± 0.5 nM; in data set [7] (Homo sapiens, A121, Experiment 2, TX-001/TX-002 from 0.4 mM stocks), 14 ± 1.3 nM. The “Resistance ratio (IC50 resistant cell line/IC50 parental line) LCC6-MDR1” value in data set [3] was 65-92 fold. Also, the “Resistance ratio (IC50 resistant cell line/IC50 parental line) HT1080/DR4” value in data set [4] is reported as 1.1-1.4 fold.
As for `CC(=O)O.CC(=O)OC1C(=O)C2(C)C(O)CC3OCC3(OC(C)=O)C2C(OC(=O)c2ccccc2)C2(O)CC(OC(=O)C(OC(=O)CCC(=O)NCCOCCOCCN)C(NC(=O)c3ccccc3)c3ccccc3)C(C)=C1C2(C)C` (stereo not drawn) [TX-001, 2′-Succinamidyl-PEG2-amine-paclitaxel Acetate], in data set [8], the chemical hydrolysis behavior entry is reported as “converted quantitatively into paclitaxel”. In addition, the half-maximal inhibitory concentration (IC50) in data set [4] (setting [9]) was 8.9 ± 0.4 nM; in data set [4] (setting [10]) it was 36 ± 1.5 nM; in data set [5] (setting [11]) it was 2.7 nM; in data set [5] (setting [12]), 4.9 ± 0.5 nM; in data set [5] (setting [13]), 13 ± 0.5 nM; in data set [6] (setting [9]), 4.5 ± 0.4 nM. Moreover, the IC50 in data set [6] (setting [10]) is 19 ± 0.7 nM; in data set [7] (setting [9]), 13 ± 0.5 nM; in data set [7] (setting [10]), 37 ± 1.2 nM.
For the compound `CC(=O)O.CC(=O)OC1C(=O)C2(C)C(O)CC3OCC3(OC(C)=O)C2C(OC(=O)c2ccccc2)C2(O)CC(OC(=O)C(OC(=O)CCCC(=O)NCCOCCOCCN)C(NC(=O)c3ccccc3)c3ccccc3)C(C)=C1C2(C)C` (stereo not drawn) [TX-002, 2′-Glutaramidyl-PEG2-amine-paclitaxel acetate], the “Resistance ratio (IC50 resistant cell line/IC50 parental line) LCC6-MDR1” value in data set [3] was 47-60 fold. Besides, the IC50 in data set [3] (read-out: IC50 (±S.E.) LCC6-MDR, 4.0 mM stock solutions that had been stored at 4° C. for 7 days) was 879 nM; in data set [3] (read-out: IC50 (±S.E.) LCC6-MDR, Experiment 1, TX-001/TX-002 from 4.0 mM stocks, 72-96 h), 1070 ± 45 nM; in data set [3] (read-out: IC50 (±S.E.) LCC6-MDR, Experiment 2, TX-001/TX-002 from 0.4 mM stocks, 72-96 h), 1800 ± 168 nM; in data set [4] (setting [9]) it was 32 ± 1.5 nM; in data set [4] (setting [10]) it was 54 ± 5.3 nM; in data set [5] (setting [11]), 16 nM. The IC50 was found to be 18 ± 1.1 nM in data set [5] (setting [12]); 38 ± 4.6 nM in data set [5] (setting [13]); 22 ± 0.9 nM in data set [6] (setting [9]); 49 ± 6.5 nM in data set [6] (setting [10]); 48 ± 3 nM in data set [7] (setting [9]); 171 ± 8.8 nM in data set [7] (setting [10]). Further, the “Resistance ratio (IC50 resistant cell line/IC50 parental line) HT1080/DR4” value in data set [4] is 1.1-1.5 fold.
